The text below walks through data of ChEMBL document CHEMBL4190244, “Perylenyltriazoles inhibit reproduction of enveloped viruses” (Eur J Med Chem, 2017).

Data set [1] is described as follows: Cytotoxicity against PEK cells after 24 hrs. In kind it is cell-based, Sus scrofa. As to conditions: pig.
In data set [2] the test system is Tick-borne encephalitis virus. As to the kind of experiment: Antiviral activity against TBEV Absettarov infected in PEK cells preincubated simultaneously with cells and virus for 1 hr with shaking every 15 to 20 mins measured after 6 days by gentian violet-staining based assay. In kind it is functional, organism-based.
Data set [3] can be described thus: Cytotoxicity against PEK cells after 7 days. In kind it is cell-based, Sus scrofa. As to conditions: pig.

In turn, `O=c1[nH]c(=O)n([C@@H]2O[C@H](CO)[C@@H](O)[C@H]2O)cc1-n1cc(-c2ccccc2)nn1` gave a CC50 at 24 h in data set [1] greater than 50 µM. For the same compound, in data set [2], the EC50 was greater than 50 µM. Besides, in data set [3], the CC50 at 168 h is greater than 50 µM.

In data set [1], `O=c1[nH]c(=O)n([C@H]2C[C@H](O)[C@@H](CO)O2)cc1-n1cc(-c2ccc3c4cccc5cccc(c6cccc2c63)c54)nn1` gave a CC50 at 24 h greater than 50 µM. This compound showed an EC50 in data set [2] of 0.038 µM. In addition, the CC50 at 168 h in data set [3] is greater than 50 µM.

In data set [1], `O=c1[nH]c(=O)n([C@@H]2O[C@H](CO)[C@@H](O)[C@H]2O)cc1-n1cc(-c2ccc3c4cccc5cccc(c6cccc2c63)c54)nn1` registered a CC50 at 24 h greater than 50 µM. The compound further had an EC50 in data set [2] of 0.031 µM. In data set [3], this compound displayed a CC50 at 168 h greater than 50 µM.

For the compound `O=c1[nH]c(=O)n([C@H]2C[C@H](O)[C@@H](CO)O2)cc1-n1cc(-c2ccccc2)nn1`, in data set [1], the CC50 at 24 h was greater than 50 µM. The EC50 in data set [2] is greater than 50 µM. The CC50 at 168 h in data set [3] was greater than 50 µM.

On to `O=c1[nH]c(=O)n([C@@H]2O[C@H](CO)[C@@H](O)[C@H]2O)cc1-n1cc(-c2cc3cccc4c5cccc6cccc(c(c2)c34)c65)nn1`, for which the CC50 at 24 h in data set [1] is greater than 50 µM. In addition, the EC50 in data set [2] worked out at 0.06 µM. The compound further gave a cytotoxic concentration (CC50) at 168 h in data set [3] greater than 50 µM.

`OCCn1cc(-c2ccc3c4cccc5cccc(c6cccc2c63)c54)nn1` came in with a 50% cytotoxic concentration (CC50) at 24 h in data set [1] greater than 50 µM. The compound also displayed an EC50 in data set [2] of 0.1 µM. Moreover, in data set [3], the CC50 at 168 h is greater than 50 µM.

In turn, `O=c1[nH]c(=O)n([C@H]2C[C@H](O)[C@@H](CO)O2)cc1-n1cc(-c2cc3cccc4c5cccc6cccc(c(c2)c34)c65)nn1` came in with a CC50 at 24 h in data set [1] greater than 50 µM. This compound also yielded an EC50 in data set [2] of 0.06 µM. This compound also showed a CC50 at 168 h in data set [3] greater than 50 µM.

In data set [1], `OCCn1cc(-c2cc3cccc4c5cccc6cccc(c(c2)c34)c65)nn1` showed a CC50 at 24 h greater than 50 µM. Besides, a half-maximal response in data set [2] (EC50) required 0.023 µM. The same compound gave a CC50 at 168 h in data set [3] greater than 50 µM.
